This passage reports IC50 results from US10532986B2, “Cyclic compound acting as PDE4 inhibitor” (MEDSHINE DISCOVERY INC., priority 2016, dated 2020).

For orientation: IC50 means the concentration that inhibits the measured activity by half.

Bounds are passed on as bounds.

The target in this assay is T1, Recombinant human PDE4B (Homo sapiens, UniProt Q07343).
T1 construct: amino acid 305-end; GST (N); made in house; host or cells: Sf9 insect cells (baculovirus)
As to the kind of experiment: Inhibitory activity of the compounds against PDE 4B (fluorescence polarization, Transcreener AMP2/GMP2). Format: biochemical. The note with it: recombinant human PDE4B (aa 305-end, GST tag); 1 μM cAMP; 1 hour at room temperature. How it is done:
Inhibitory activity of the compounds against PDE 4B
The assay is based on the fluorescence polarization measuring AMP/GMP production as a result of the enzyme activity by displacement of Tracer binding to the AMP/GMP antibody.
10 mM Tris-HCl (pH 7.5), 5 mM MgCl2, 0.01% Brij 35, 1 mM DTT and 1% DMSO.
Recombinant human PDE4B (Gene accession number: NM_002600; amino acid 305-end) was expressed by baculovirus in Sf9 insect cells using an N-terminal GST tag. MW=78 kDa.
Transcreener® AMP^2/GMP^2 antibody and AMP^2/GMP^2 AlexaFluor 633 tracer
i) Recombinant human PDE4B and the enzyme substrate (1 μM cAMP) were dissolved in the newly-prepared buffer solution, respectively.
ii) The PDE4B buffer solution defined as above was transferred into the reaction wells.
iii) The compound which was dissolved in 100% DMSO was added to the reaction wells of the PDE4B buffer solution by Acoustic technology (Echo550; nanoliter range) and incubated at room temperature for 10 minutes.
iv) The enzymatic buffer solution was then added to the reaction wells defined as above to initiate the reaction.
v) The reaction was incubated at room temperature for 1 hour.
vi) The reaction was terminated by adding detecting mixture (Transcreener® AMP^2/GMP^2 antibody and AMP^2/GMP^2 AlexaFluor 633 tracer) and incubated for 90 minutes with gentle mixing. The measurement range of fluorescence polarization is Ex/Em=620/688.
The fluorescence polarization signal was converted into nM based on the AMP/GMP standard curve and the percent enzyme activity relative to DMSO calculated by Excel. GraphPad Prism was used to plot the curves (Drawing Medicine Icon)
For orientation: Polarisation of emitted light reports the rotation of a fluorescent probe.

T1 sequence (Q07343 305-736 limits assumed): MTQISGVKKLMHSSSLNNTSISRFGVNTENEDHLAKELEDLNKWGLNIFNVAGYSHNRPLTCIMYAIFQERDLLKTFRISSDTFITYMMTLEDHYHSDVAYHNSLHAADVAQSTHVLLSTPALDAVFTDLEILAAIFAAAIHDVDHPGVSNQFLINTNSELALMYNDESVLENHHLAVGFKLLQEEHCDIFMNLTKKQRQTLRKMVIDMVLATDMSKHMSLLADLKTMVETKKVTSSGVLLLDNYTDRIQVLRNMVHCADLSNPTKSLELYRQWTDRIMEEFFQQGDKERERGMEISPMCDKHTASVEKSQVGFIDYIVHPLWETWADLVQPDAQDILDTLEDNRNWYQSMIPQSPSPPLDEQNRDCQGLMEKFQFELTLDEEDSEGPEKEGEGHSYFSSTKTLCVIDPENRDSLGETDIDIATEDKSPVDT

As to `CCOc1cc([C@@H](CS(C)(=O)=O)n2c(=O)n(CC(F)(F)F)c3c(Cl)cccc32)ccc1OC` [WX062], the IC50 is 54.9 nM.
The value for `CCOc1cc(C(CS(C)(=O)=O)n2c(=O)n(CCS(C)(=O)=O)c3cc(Br)ccc32)ccc1OC` (stereo not shown) [WX063] was 20.8 nM; that for `CCOc1cc([C@@H](CS(C)(=O)=O)n2c(=O)n(Cc3ccccc3F)c3cc(Br)ccc32)ccc1OC` [WX064] was 0.91 nM.
In the case of `CCOc1cc([C@@H](CS(C)(=O)=O)n2c(=O)n(Cc3cccc(F)c3)c3cc(Br)ccc32)ccc1OC` [WX065], the IC50 was determined as 1.43 nM.
The value for `CCOc1cc([C@@H](CS(C)(=O)=O)n2c(=O)n(Cc3ccc(F)cc3)c3cc(Br)ccc32)ccc1OC` [WX066] was 1.54 nM.
The value for `CCOc1cc([C@@H](CS(C)(=O)=O)n2c(=O)n(Cc3ccccc3F)c3ccccc32)ccc1OC` [WX067] was 10.1 nM.
The value for `CCOc1cc([C@@H](CS(C)(=O)=O)n2c(=O)n(C)c3cc(-c4ccccc4F)ccc32)ccc1OC` [WX068] was 0.707 nM.
`CCOc1cc([C@@H](CS(C)(=O)=O)n2c(=O)n(CC)c3cc(-c4ccccc4F)ccc32)ccc1OC` [WX069]: the IC50 was found to be 0.477 nM.
The value for `CCOc1cc([C@@H](CS(C)(=O)=O)n2c(=O)n(C(C)C)c3cc(-c4ccccc4F)ccc32)ccc1OC` [WX070] was 1.25 nM; that for `CCOc1cc([C@@H](CS(C)(=O)=O)n2c(=O)n(CC#N)c3cc(-c4ccccc4F)ccc32)ccc1OC` [WX071] was less than 0.5 nM; that for `CCOC(=O)c1ccc2c(c1)n(CC(F)F)c(=O)n2[C@H](CS(C)(=O)=O)c1ccc(OC)c(OCC)c1` [WX072] was 14.8 nM.
The value for `CCOC(=O)c1ccc2c(c1)n(CC(F)(F)F)c(=O)n2[C@H](CS(C)(=O)=O)c1ccc(OC)c(OCC)c1` [WX073] was 31.8 nM.
The value for `CCOC(=O)c1ccc2c(c1)n(C)c(=O)n2[C@H](CS(C)(=O)=O)c1ccc(OC)c(OCC)c1` [WX074] was 10.2 nM; that for `CCOc1cc(C(CS(C)(=O)=O)n2c(=O)[nH]c3cc(-c4ccccc4F)ccc32)ccc1OC(F)F` (stereo not shown) [WX075] was 0.68 nM; that for `COc1ccc(C(CS(C)(=O)=O)n2c(=O)[nH]c3cc(-c4ccccc4F)ccc32)cc1` (stereo not shown) [WX076] was 21.8 nM.
Take `CCOc1cc(C(CS(C)(=O)=O)n2c(=O)oc3cc(Br)ccc32)ccc1OC` (stereo not shown) [WX077]: the IC50 amounted to 46.8 nM.
The value for `CCOc1cc([C@@H](CS(C)(=O)=O)n2c(=O)[nH]c3c(-c4cnn(C)c4)cccc32)ccc1OC` [WX078] was 0.822 nM; that for `CCOc1cc([C@@H](CS(C)(=O)=O)n2c(=O)[nH]c3c(C(C)C)cccc32)ccc1OC` [WX079] was 2.53 nM.
For `CCOc1cc([C@@H](CS(C)(=O)=O)n2c(=O)[nH]c3c(C4=CCOCC4)cccc32)ccc1OC` [WX080], the IC50 came to 1.03 nM.
For `CCOc1cc([C@@H](CS(C)(=O)=O)n2c(=O)[nH]c3c(C4CCOCC4)cccc32)ccc1OC` [WX081] the value was 1.38 nM.
For `CCOc1cc([C@@H](CS(C)(=O)=O)n2c(=O)[nH]c3c(-c4ccccc4OC)cccc32)ccc1OC` [WX082] the value was less than 0.5 nM; for `CCOc1cc([C@@H](CS(C)(=O)=O)n2c(=O)[nH]c3c(-c4ccccc4C)cccc32)ccc1OC` [WX083], less than 0.5 nM; for `CCOc1cc([C@@H](CS(C)(=O)=O)n2c(=O)[nH]c3c(-n4cccn4)cccc32)ccc1OC` [WX084], 18.1 nM.
For the molecule `CCOc1cc([C@@H](CS(C)(=O)=O)n2c(=O)[nH]c3c(C(=O)N4CCCC4)cccc32)ccc1OC` [WX085], the IC50 was found to be 5.64 nM.
For `CCOc1cc([C@@H](CS(C)(=O)=O)n2c(=O)[nH]c3c(C(C)=O)cccc32)ccc1OC` [WX086] the value was 36.2 nM; for `CCOc1cc([C@@H](CS(C)(=O)=O)n2c(=O)[nH]c3c(-c4ccccc4F)cccc32)ccc1OC` [WX087], 1.29 nM.
The value for `CCOc1cc([C@@H](CS(C)(=O)=O)n2c(=O)[nH]c3c(-c4cccc(F)c4)cccc32)ccc1OC` [WX088] was 2.4 nM; that for `CCOc1cc([C@@H](CS(C)(=O)=O)n2c(=O)[nH]c3c(-c4ccc(F)cc4)cccc32)ccc1OC` [WX089] was 2.52 nM.
For `CCOc1cc([C@@H](CS(C)(=O)=O)n2c(=O)[nH]c3c(-c4ccccc4)cccc32)ccc1OC` [WX090] the value was 0.341 nM; for `CCOc1cc([C@@H](CS(C)(=O)=O)n2c(=O)[nH]c3c(C4CC4)cccc32)ccc1OC` [WX091], 3.98 nM.
Turning to `C=C(C)c1cccc2c1[nH]c(=O)n2[C@H](CS(C)(=O)=O)c1ccc(OC)c(OCC)c1` [WX092], the IC50 was determined as 2.15 nM.
For `CCOc1cc([C@@H](CS(C)(=O)=O)n2c(=O)[nH]c3c(-c4cccs4)cccc32)ccc1OC` [WX093] the value was 1.25 nM.
`CCOc1cc([C@@H](CS(C)(=O)=O)n2c(=O)[nH]c3c(Cc4ccccc4F)cccc32)ccc1OC` [WX094]: the IC50 is less than 0.5 nM.
The value for `CCOc1cc([C@@H](CS(C)(=O)=O)n2c(=O)[nH]c3c(-c4nccs4)cccc32)ccc1OC` [WX095] was 6.58 nM; that for `CCOc1cc([C@@H](CS(C)(=O)=O)n2c(=O)[nH]c3c(-c4ncc(F)cn4)cccc32)ccc1OC` [WX096] was 7.3 nM.
The value for `CCOc1cc([C@@H](CS(C)(=O)=O)n2c(=O)[nH]c3c(-c4ncccc4F)cccc32)ccc1OC` [WX097] was 5.04 nM.
For `CCOC(=O)c1cccc2c1[nH]c(=O)n2[C@H](CS(C)(=O)=O)c1ccc(OC)c(OCC)c1` [WX098] the value was 18.1 nM.
